According to the NIST ThermoML archive (doi:10.1016/j.jct.2019.06.005):
± gives the expanded uncertainty stated by the source.

Legend:
[1] = for surface tension liquid-gas: Maximal bubble pressure; for mass density: 100 kPa, Liquid, Vibrating tube method
[2] = xn = mol fraction of the nth substance listed; conditions: x2 = 0; for surface tension liquid-gas: Maximal bubble pressure; for mass density: 100 kPa, Liquid, Vibrating tube method

Compound | surface tension liquid-gas ([1]; 288.15 K) | mass density ([1]; 288.15 K) | surface tension liquid-gas ([1]; 293.15 K) | mass density ([1]; 293.15 K) | surface tension liquid-gas ([1]; 298.15 K) | mass density ([1]; 298.15 K) | surface tension liquid-gas ([1]; 303.15 K) | mass density ([1]; 303.15 K) | surface tension liquid-gas ([1]; 308.15 K) | mass density ([1]; 308.15 K) | surface tension liquid-gas ([1]; 313.15 K) | mass density ([1]; 313.15 K) | surface tension liquid-gas ([1]; 318.15 K) | mass density ([1]; 318.15 K) | surface tension liquid-gas ([2]; 288.15 K) | mass density ([2]; 288.15 K) | surface tension liquid-gas ([2]; 293.15 K) | mass density ([2]; 293.15 K) | surface tension liquid-gas ([2]; 298.15 K) | mass density ([2]; 298.15 K) | other results
COCC[n+]1ccn(C)c1.O=S(=O)([N-]S(=O)(=O)C(F)(F)F)C(F)(F)F | 41.4 ± 4.2 mN/m | 1515.3 ± 9.4 kg/m3 | 41.2 ± 4.1 mN/m | 1510.15 ± 9.4 kg/m3 | 41 ± 4.1 mN/m | 1505.03 ± 9.4 kg/m3 | 40.7 ± 4.1 mN/m | 1499.92 ± 9.3 kg/m3 | 40.5 ± 4.1 mN/m | 1494.83 ± 9.3 kg/m3 | 40.3 ± 4 mN/m | 1489.77 ± 9.3 kg/m3 | 40.1 ± 4 mN/m | 1484.72 ± 9.2 kg/m3 |  |  |  |  |  |  | 
CCO [ethanol] + COCC[n+]1ccn(C)c1.O=S(=O)([N-]S(=O)(=O)C(F)(F)F)C(F)(F)F |  |  |  |  |  |  |  |  |  |  |  |  |  |  | 23.3 ± 2.3 mN/m | 793.91 ± 4.9 kg/m3 | 22.7 ± 2.3 mN/m | 789.66 ± 4.9 kg/m3 | 22.2 ± 2.2 mN/m | 785.73 ± 4.9 kg/m3 | surface tension liquid-gas ([2]; 303.15 K): 21.6 ± 2.2 mN/m; mass density ([2]; 303.15 K): 781.05 ± 4.8 kg/m3; surface tension liquid-gas ([2]; 308.15 K): 21.1 ± 2.1 mN/m; mass density ([2]; 308.15 K): 776.7 ± 4.8 kg/m3; surface tension liquid-gas ([2]; 313.15 K): 20.7 ± 2.1 mN/m; mass density ([2]; 313.15 K): 772.31 ± 4.8 kg/m3; surface tension liquid-gas ([2]; 318.15 K): 20 ± 2 mN/m; mass density ([2]; 318.15 K): 767.88 ± 4.8 kg/m3
CO [methanol] | 24.4 ± 2.4 mN/m | 796.037 ± 4.9 kg/m3 | 23.8 ± 2.4 mN/m | 791.352 ± 4.9 kg/m3 | 22.9 ± 2.3 mN/m | 786.643 ± 4.9 kg/m3 | 22.3 ± 2.2 mN/m | 781.913 ± 4.8 kg/m3 | 21.8 ± 2.2 mN/m | 777.16 ± 4.8 kg/m3 | 21.1 ± 2.1 mN/m | 772.38 ± 4.8 kg/m3 | 20.5 ± 2.1 mN/m | 767.567 ± 4.8 kg/m3 |  |  |  |  |  |  | 
CO [methanol] + COCC[n+]1ccn(C)c1.O=S(=O)([N-]S(=O)(=O)C(F)(F)F)C(F)(F)F |  |  |  |  |  |  |  |  |  |  |  |  |  |  | 24.4 ± 2.4 mN/m | 796.037 ± 4.9 kg/m3 | 23.8 ± 2.4 mN/m | 791.352 ± 4.9 kg/m3 | 22.9 ± 2.3 mN/m | 786.643 ± 4.9 kg/m3 | surface tension liquid-gas ([2]; 303.15 K): 22.3 ± 2.2 mN/m; mass density ([2]; 303.15 K): 781.913 ± 4.8 kg/m3; surface tension liquid-gas ([2]; 308.15 K): 21.8 ± 2.2 mN/m; mass density ([2]; 308.15 K): 777.16 ± 4.8 kg/m3; surface tension liquid-gas ([2]; 313.15 K): 21.1 ± 2.1 mN/m; mass density ([2]; 313.15 K): 772.38 ± 4.8 kg/m3; surface tension liquid-gas ([2]; 318.15 K): 20.5 ± 2.1 mN/m; mass density ([2]; 318.15 K): 767.567 ± 4.8 kg/m3
